Measurements published in US11529341B2, “Bicyclic compounds as inhibitors of PD1/PD-L1 interaction/activation” (JUBILANT PRODEL LLC, priority 2018, dated 2022).

The compounds below were run against T1, PD-1/PD-L1 interaction (Homo sapiens, UniProt Q9NZQ7) (assay: PD-1/PD-L1 Homogenous Time-Resolved Fluorescence (HTRF) binding assay (CisBio kit)). Settings: Biochemical PD1/PD-L1 inhibition.
T1 construct: Tag1 (undisclosed kit tag); purchased CisBio 63ADK000CPAPEG
Procedure: PD-L1 Enzyme Assay: Homogenous Time-Resolved Fluorescence (HTRF) Binding Assay
All binding studies were performed using PD-1/PD-L1 Binding Assay Kit from CisBio (Catalog #63ADK000CPAPEG), according to the manufacturer's protocol. The interaction between Tag1-PD-1 and […] was detected by anti-Tag1-Eu^3+ (HTRF donor) and anti-Tag2-XL665 (HTRF acceptor). When the donor and acceptor antibodies were brought to close proximity due to PD-1 and PD-L1 binding, excitation of the donor antibody triggered fluorescent resonance energy transfer (FRET) towards the acceptor antibody, which in turn emitted specifically at 665 nm. This specific signal is positively proportional to PD-1/PD-L1 interaction. The compounds blocking PD-1/PD-L1 interaction will cause a reduction in HTRF signal. The necessary reagents were mixed in the following order: 2 μl compounds (or diluents buffer), 4 μl PD-L1 protein, 4 μl PD-1 protein. After an incubation of 15 minutes, 5 μl of anti-Tag1-Eu^3+ and 5 μl of anti-Tag2-XL665 were added. The plate was sealed and incubated at room temperature for 1 h. The fluorescence emission was read at two different wavelengths (665 nm and 620 nm) on a BMG PheraStar® multi-plate reader. Results were calculated from the 665 nm and 620 nm fluorescence signal and expressed in HTRF ratio=(665 nm/620 nm)×10^4.

T1 sequence (Q9NZQ7 19-238 limits assumed): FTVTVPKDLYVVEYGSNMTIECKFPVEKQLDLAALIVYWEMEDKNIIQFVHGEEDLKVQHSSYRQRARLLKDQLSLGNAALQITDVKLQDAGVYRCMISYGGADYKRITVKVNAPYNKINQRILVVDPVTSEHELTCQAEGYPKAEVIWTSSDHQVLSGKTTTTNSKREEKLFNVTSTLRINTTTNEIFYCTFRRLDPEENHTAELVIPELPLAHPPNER

IC50 [nM] | SMILES
< 100 | COc1cc(OCc2cccc(-c3ccccc3)c2C)c2c(c1CN1CCOC[C@H]1C(=O)O)CCC2 [Compound 98, (S)-4-((5-methoxy-7-((2-methyl-[1,1′-biphenyl]-3-yl)methoxy)-2,3-dihydro-1H-inden-4-yl)methyl)morpholine-3-carboxylic acid]
100 to 500 | COc1cc(OCc2cccc(-c3ccccc3)c2C)c2c(c1CN1CCC[C@H]3C[C@]31C(=O)O)CCC2 (racemic) [Compound 45, (1R,6S)-2-((5-methoxy-7-((2-methyl-[1,1′-biphenyl]-3-yl)methoxy)-2,3-dihydro-1H-inden-4-yl)methyl)-2-azabicyclo[4.1.0]heptane-1-carboxylic acid]
100 to 500 | Cc1c(COc2cc(OCc3cccc(C#N)c3)c(CN3CC4(COC4)C3)c3c2CCC3)cccc1-c1ccccc1 [Compound 39, 3-(((4-((2-oxa-6-azaspiro[3.3]heptan-6-yl)methyl)-7-((2-methyl-[1,1′-biphenyl]-3-yl)methoxy)-2,3-dihydro-1H-inden-5-yl)oxy)methyl)benzonitrile]
< 100 | N#Cc1cncc(COc2cc(OCc3cccc(-c4ccccc4)c3C#N)c3c(c2CN2CCC[C@@H](C(=O)O)C2)CCC3)c1 [Compound 71, (R)-1-((7-((2-cyano-[1,1′-biphenyl]-3-yl)methoxy)-5-((5-cyanopyridin-3-yl)methoxy)-2,3-dihydro-1H-inden-4-yl)methyl)piperidine-3-carboxylic acid]
> 500 | CC(=O)NCCCCCC(=O)NCc1c(OCc2cccc(C#N)c2)cc(OCc2cccc(-c3ccccc3)c2C)c2c1CCC2 [Compound 91, 6-acetamido-N-((5-((3-cyanobenzyl)oxy)-7-((2-methyl-[1,1′-biphenyl]-3-yl)methoxy)-2,3-dihydro-1H-inden-4-yl)methyl)hexanamide]
< 100 | Cc1c(COc2cc(OCc3cccc(C#N)c3)c(CNCCCC(=O)O)c3c2CCC3)cccc1-c1ccccc1 [Compound 44, 4-(((5-((3-cyanobenzyl)oxy)-7-((2-methyl-[1,1′-biphenyl]-3-yl)methoxy)-2,3-dihydro-1H-inden-4-yl)methyl)amino)butanoic acid]
< 100 | CC(=O)NCCNCc1c(OCc2cncc(C(N)=O)c2)cc(OCc2cccc(-c3ccccc3)c2C)c2c1CCC2 [Compound 94, 5-(((4-(((2-acetamidoethyl)amino)methyl)-7-((2-methyl-[1,1′-biphenyl]-3-yl)methoxy)-2,3-dihydro-1H-inden-5-yl)oxy)methyl)nicotinamide]
100 to 500 | CC(=O)NCCNCc1c(OCc2cccc(C#N)c2)cc(OCc2cccc(-c3ccccc3C)c2C)c2c1CCC2 [Compound 86, N-(2-(((5-((3-cyanobenzyl)oxy)-7-((2,2′-dimethyl-[1,1′-biphenyl]-3-yl)methoxy)-2,3-dihydro-1H-inden-4-yl)methyl)amino)ethyl)acetamide]
100 to 500 | Cc1c(COc2ccc(CNC(CO)(CO)CO)c3c2CCC3)cccc1-c1ccccc1 [Compound 18, 2-(hydroxymethyl)-2-(((7-((2-methyl-[1,1′-biphenyl]-3-yl)methoxy)-2,3-dihydro-1H-inden-4-yl)methyl)amino)propane-1,3-diol]
< 100 | Cc1c(COc2cc(OCc3cccc(C#N)c3)c(CN3C[C@H](O)C[C@H]3C(=O)O)c3c2CCC3)cccc1-c1ccccc1 [Compound 35, (2S,4R)-1-((5-((3-cyanobenzyl)oxy)-7-((2-methyl-[1,1′-biphenyl]-3-yl)methoxy)-2,3-dihydro-1H-inden-4-yl)methyl)-4-hydroxypyrrolidine-2-carboxylic acid]
< 100 | CC(=O)NCCNCc1c(OCc2cncc(C(=O)O)c2)cc(OCc2cccc(-c3ccccc3)c2C)c2c1CCC2 [Compound 93, 5-(((4-(((2-acetamidoethyl)amino)methyl)-7-((2-methyl-[1,1′-biphenyl]-3-yl)methoxy)-2,3-dihydro-1H-inden-5-yl)oxy)methyl)nicotinic acid]
< 100 | Cc1c(COc2cc(OCc3cccc(C#N)c3)c(CN3CCCC(O)C3)c3c2CCC3)cccc1-c1ccccc1 (centres unmarked) [Compound 40, 3-(((4-((3-hydroxypiperidin-1-yl)methyl)-7-((2-methyl-[1,1′-biphenyl]-3-yl)methoxy)-2,3-dihydro-1H-inden-5-yl)oxy)methyl)benzonitrile]
< 100 | Cc1c(COc2cc(OCC3CCCN(C)C3)c(CN3CCCC[C@H]3C(=O)O)c3c2CCC3)cccc1-c1ccccc1 (stereo partly drawn) [Compound 77, (2S)-1-((7-((2-methyl-[1,1′-biphenyl]-3-yl)methoxy)-5-((1-methylpiperidin-3-yl)methoxy)-2,3-dihydro-1H-inden-4-yl)methyl)piperidine-2-carboxylic acid]
100 to 500 | COC(=O)C12CCC(NCc3c(OCc4cccc(C#N)c4)cc(OCc4cccc(-c5ccccc5)c4C)c4c3CCC4)(CC1)CC2 [Compound 73, methyl 4-(((5-((3-cyanobenzyl)oxy)-7-((2-methyl-[1,1′-biphenyl]-3-yl)methoxy)-2,3-dihydro-1H-inden-4-yl)methyl)amino)bicyclo[2.2.2]octane-1-carboxylate]
< 100 | N#Cc1cncc(COc2cc(OCc3cccc(-c4ccccc4)c3C#N)c3c(c2CN2CCCC[C@H]2C(=O)O)CCC3)c1 [Compound 69, (S)-1-((7-((2-cyano-[1,1′-biphenyl]-3-yl)methoxy)-5-((5-cyanopyridin-3-yl)methoxy)-2,3-dihydro-1H-inden-4-yl)methyl)piperidine-2-carboxylic acid]
< 100 | Cc1c(COc2cc(OCc3cccc(C#N)c3)c(CN3CCCC[C@H]3C(N)=O)c3c2CCC3)cccc1-c1ccccc1 [Compound 37, (S)-1-((5-((3-cyanobenzyl)oxy)-7-((2-methyl-[1,1′-biphenyl]-3-yl)methoxy)-2,3-dihydro-1H-inden-4-yl)methyl)piperidine-2-carboxamide]
< 100 | CC(=O)N(C)CCNCc1c(OCc2cccc(C#N)c2)cc(OCc2cccc(-c3ccccc3)c2C)c2c1CCC2 [Compound 13, N-(2-(((5-((3-cyanobenzyl)oxy)-7-((2-methyl-[1,1′-biphenyl]-3-yl)methoxy)-2,3-dihydro-1H-inden-4-yl)methyl)amino)ethyl)-N-methylacetamide]
< 100 | COc1cc(OCc2cccc(-c3ccccc3)c2C#N)c2c(c1CN1C[C@H](O)C[C@H]1C(=O)O)CCC2 [Compound 57, (2S,4R)-1-((7-((2-cyano-[1,1′-biphenyl]-3-yl)methoxy)-5-methoxy-2,3-dihydro-1H-inden-4-yl)methyl)-4-hydroxypyrrolidine-2-carboxylic acid]
100 to 500 | Cc1c(COc2ccc(CN3CCCC[C@H]3C(=O)O)c3c2CCCC3)cccc1-c1ccccc1 [Compound 27, 1-((4-((2-methyl-[1,1′-biphenyl]-3-yl)methoxy)-5,6,7,8-tetrahydronaphthalen-1-yl)methyl)piperidine-2-carboxylic acid]
< 100 | N#Cc1cncc(COc2cc(OCc3cccc(-c4ccccc4)c3C#N)c3c(c2CN2CCC[C@@H]4C[C@@]42C(=O)O)CCC3)c1 (racemic) [Compound 72, rac-(1R,6S)-2-((7-((2-cyano-[1,1′-biphenyl]-3-yl)methoxy)-5-((5-cyanopyridin-3-yl)methoxy)-2,3-dihydro-1H-inden-4-yl)methyl)-2-azabicyclo[4.1.0]heptane-1-carboxylic acid]
< 100 | COc1nc(OCc2cccc(-c3ccccc3)c2C)c2c(c1CNCCNC(C)=O)CCC2 [Compound 97, N-(2-(((3-methoxy-1-((2-methyl-[1,1′-biphenyl]-3-yl)methoxy)-6,7-dihydro-5H-cyclopenta[c]pyridin-4-yl)methyl)amino)ethyl)acetamide]
100 to 500 | COc1cc(OCc2cccc(-c3cccc(OCCCN4CCC(F)(F)C4)c3C)c2C)c2c(c1CNCCNC(C)=O)CCC2 [Compound 32, N-(2-(((7-((3′-(3-(3,3-difluoropyrrolidin-1-yl)propoxy)-2,2′-dimethyl-[1,1′-biphenyl]-3-yl)methoxy)-5-methoxy-2,3-dihydro-1H-inden-4-yl)methyl)amino)ethyl)acetamide]
100 to 500 | COc1cc(OCc2cccc(-c3ccccc3)c2C)c2c(c1CNCCNC(C)=O)CCC2 [Compound 2, N-(2-(((5-methoxy-7-((2-methyl-[1,1′-biphenyl]-3-yl)methoxy)-2,3-dihydro-1H-inden-4-yl)methyl)amino)ethyl)acetamide]
< 100 | Cc1c(COc2cc(OCc3cccc(C#N)c3)c(CN)c3c2CCC3)cccc1-c1ccccc1 [Compound 89, 3-(((4-(aminomethyl)-7-((2-methyl-[1,1′-biphenyl]-3-yl)methoxy)-2,3-dihydro-1H-inden-5-yl)oxy)methyl)benzonitrile]
> 500 | CC(=O)NCCNCc1c(OC(C)c2cccc(C#N)c2)cc(OCc2cccc(-c3ccccc3)c2C)c2c1CCC2 (centres unmarked) [Compound 14, N-(2-(((5-(1-(3-cyanophenyl)ethoxy)-7-((2-methyl-[1,1′-biphenyl]-3-yl)methoxy)-2,3-dihydro-1H-inden-4-yl)methyl)amino)ethyl)acetamide]

SMILES | IC50 [nM]
N#Cc1c(COc2cc(OCCCCC(=O)O)c(CN3CCCC[C@H]3C(=O)O)c3c2CCC3)cccc1-c1ccccc1 [Compound 78, (S)-1-((5-(4-carboxybutoxy)-7-((2-cyano-[1,1′-biphenyl]-3-yl)methoxy)-2,3-dihydro-1H-inden-4-yl)methyl)piperidine-2-carboxylic acid] | < 100
